Tests used:
human TGR5 (h-TGR5) = molecular target: T1, human TGR5 (h-TGR5) (Homo sapiens, UniProt Q8TDU6); assay: TGR5/CRE-Luciferiase Assay (HEK 293 hTGR5/CRE-Luc cells); assay type: cell-based; conditions: h-TGR5 CRE-Luc EC50, Table 1; read-out: CRE-Luc (EC50)
T1 construct: expressed in transfected cells
T1 sequence (Q8TDU6 1-330): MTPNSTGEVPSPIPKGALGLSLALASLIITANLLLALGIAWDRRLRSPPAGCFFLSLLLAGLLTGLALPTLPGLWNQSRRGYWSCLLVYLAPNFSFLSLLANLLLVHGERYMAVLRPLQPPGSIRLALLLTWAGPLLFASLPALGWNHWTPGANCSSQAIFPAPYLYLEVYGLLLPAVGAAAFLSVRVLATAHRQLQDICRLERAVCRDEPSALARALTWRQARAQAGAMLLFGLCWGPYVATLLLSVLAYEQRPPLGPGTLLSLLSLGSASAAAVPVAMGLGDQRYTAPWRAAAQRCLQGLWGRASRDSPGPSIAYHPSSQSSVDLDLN
Summary of the method: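 HEK293 cells stably carrying hTGR5 and a CRE-luciferase reporter were exposed to serially diluted compounds (diluted in DMEM with 5% DMSO) for 6 h. Cells were then lysed in luciferase buffer, luminescence was read, and EC50 values were derived from dose-response curves.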

h-TGR5 = molecular target: T2, h-TGR5 (Homo sapiens, UniProt Q8TDU6); assay: TGR5 cAMP Assay using Cisbio cAMP Dynamic2 htrf kit (hTGR5CRE-luc HEK 293 cells); assay type: cell-based; conditions: h-TGR5 cAMP EC50, Table 1; read-out: cAMP (EC50)
T2 construct: expressed in transfected cells
T2 sequence (Q8TDU6 1-330): T1 sequence (Q8TDU6 1-330)
Summary of the method: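 […], 4000 hTGR5CRE-luc HEK 293 cells per well, with 0.5 mM IBMX and d2-cAMP, were incubated 30 min at room temperature with compounds in 8-point half-log series, in quadruplicate.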

Structure (SMILES) | EC50 (human TGR5 (h-TGR5)) | EC50 (h-TGR5)
CC(C)(c1ccc(Cl)c(Cl)c1)c1cnc(SCC2CCN(S(C)(=O)=O)CC2)n1-c1ccc(F)c(Cl)c1 [4-[({1-(3-chloro-4-fluorophenyl)-5-[1-(3,4-dichlorophenyl)-1-methylethyl]-1H-imidazol-2-yl}thio)methyl]-1-(methylsulfonyl)piperidine] | < 100 nM | 100 to 1000 nM
COc1cc(-n2c(C(C)(C)c3ccc(Cl)c(Cl)c3)cnc2SCc2c(F)cc(C(=O)NCS(=O)(=O)O)cc2F)ccc1F [[({4-[({5-[1-(3,4-dichlorophenyl)-1-methylethyl]-1-[4-fluoro-3-(methyloxy)phenyl]-1H-imidazol-2-yl}thio)methyl]-3,5-difIuorophenyl}carbonyl)amino]methanesulfonic acid] | < 100 nM | < 100 nM
CC(C)(c1ccc(Cl)c(Cl)c1)c1cnc(S(=O)(=O)NCc2ccc(F)cc2Cl)n1-c1ccc(F)cc1 [N-[(2-chloro-4-fluorophenyl)methyl]-5-[1-(3,4-dichlorophenyl)-1-methylethyl]-1-(4-fluorophenyl)-1H-imidazole-2-sulfonamide] | < 100 nM | 100 to 1000 nM
CC(C)(c1ccc(Cl)c(OCCCN2CCOCC2)c1)c1cnc(SCc2c(F)cccc2Cl)n1-c1ccc(F)cc1 | 100 to 1000 nM | 100 to 1000 nM
COc1ccc(C(C)(C)c2cnc(SCc3ccc(Cl)c(-c4nnn[nH]4)c3)n2-c2ccc(F)cc2)cc1Cl [5-[2-chloro-5-({[5-{1-[3-chloro-4-(methyloxy)phenyl]-1-methylethyl}-1-(4-fluorophenyl)-1H-imidazol-2-yl]thio}methyl)phenyl]-1H-tetrazole] | < 100 nM | 100 to 1000 nM
CC(C)(c1ccc(S(N)(=O)=O)c(Cl)c1)c1cnc(SCc2c(F)cc(C(=O)O)cc2F)n1-c1ccc(F)cc1 [4-({[5-{1-[4-(aminosulfonyl)-3-chlorophenyl]-1-methylethyl}-1-(4-fluorophenyl)-1H-imidazol-2-yl]thio}methyl)-3,5-difluorobenzoic acid] | < 100 nM | < 100 nM
CC(C)(c1ccc(Cl)c(Cl)c1)c1cnc(SCc2c(F)cc(C(=O)O)cc2F)n1-c1ccc(F)cc1 [4-[({5-[1-(3,4-dichlorophenyl)-1-methylethyl]-1-(4-fluorophenyl)-1H-imidazol-2-yl}thio)methyl]-3,5-difluorobenzoic acid] | < 100 nM | 100 to 1000 nM
CC(C)(c1ccc(Cl)c(Cl)c1)c1cnc(SCc2ccc(C(=O)O)cc2F)n1-c1ccc(F)cc1 [4-[({5-[1-(3,4-dichlorophenyl)-1-methylethyl]-1-(4-fluorophenyl)-1H-imidazol-2-yl}thio)methyl]-3-fluorobenzoic acid] | 100 to 1000 nM | 100 to 1000 nM
COc1cc(C(C)(C)c2cnc(SCc3ccc(S(=O)(=O)NC(=O)NN4CCCC4)cc3Cl)n2-c2ccc(F)c(CO)c2)ccc1Cl [3-chloro-4-{[(5-{1-[4-chloro-3-(methyloxy)phenyl]-1-methylethyl}-1-[4-fluoro-3-(hydroxymethyl)phenyl]-1H-imidazol-2-yl)thio]methyl}-N-[(pyrrolidin-1-ylamino)carbonyl]benzenesulfonamide] | 100 to 1000 nM | 100 to 1000 nM
CCOC(=O)NS(=O)(=O)c1ccc(CSc2ncc(C(C)(C)c3ccc(OC)c(Cl)c3)n2-c2ccc(F)cc2)c(Cl)c1 [ethyl {[3-chloro-4-({[5-{1-[3-chloro-4-(methyloxy)phenyl]-1-methylethyl}-1-(4-fluorophenyl)-1H-imidazol-2-yl]thio}methyl)phenyl]sulfonyl}carbamate] | < 100 nM | < 100 nM
Cc1cc(-n2c(C(C)(C)c3ccc(F)c(F)c3)cnc2SCc2ccc(S(=O)(=O)NC(=O)NN3CCCC3)cc2Cl)ccc1F [3-chloro-4-[({5-[1-(3,4-difluorophcnyl)-1-methylethyl]-1-(4-fluoro-3-methylphenyl)-1H-imidazol-2-yl}thio)methyl]-N-[(pyrrolidin-1-ylamino)carbonyl]benzenesulfonamide] | 100 to 1000 nM | 1000 to 10000 nM
